Data published in patent US8058468B2, “Carbamate antibiotics” (Nederlandse Organisatie Voor …, priority 2005, dated 2011).
In brackets after ≈: the same amount, converted by molar mass. Read-outs that look alike come from different tables or passages of the source.

Assays:
[1] = tested on: S. aureus ATCC 29213; assay: MIC test (CLSI M7-A6), single strain; assay type: cell-based; settings: Staphylococcus aureus, ATCC29213; single strain ATCC 29213
Experimental: (§1) MIC test were performed according to standard methodology: M7-A6-“Methods for Dilution Antimicrobial Susceptibility Tests for Bacteria That Grow Aerobically”; Approved Standard, Sixth Edition Clinical and Laboratory Standards Institute 2005 (CLSI/formerly NCCLS).
(§2) Table 2 lists the results of 3 different compounds according to Formula (I) on single strains of S. aureus as MIC values expressed in micrograms per milliliter.

[2] = tested on: S. aureus MW2; assay: MIC test (CLSI M7-A6), single strain; assay type: cell-based; settings: Staphylococcus aureus
Experimental: as §1, §2

[3] = tested on: S. aureus N315; assay: MIC test (CLSI M7-A6), single strain; assay type: cell-based; settings: Staphylococcus aureus
Experimental: as §1, §2

[4] = tested on: multiple strains of S. aureus; assay: MIC test on multiple strains of S. aureus; assay type: cell-based, Staphylococcus aureus; settings: for MIC 50 / MIC 90: 59-60 tested S. aureus strains; for Range MIC (lowest-highest): highest: highest value over 59-60 tested S. aureus strains; for Range MIC (lowest-highest): lowest: lowest value over 59-60 tested S. aureus strains
Experimental: MIC test were performed according to standard methodology: M7-A6-“Methods for Dilution Antimicrobial Susceptibility Tests for Bacteria That Grow Aerobically”; Approved Standard, Sixth Edition Clinical and Laboratory Standards Institute 2005 (CLSI/formerly NCCLS). The MIC values are expressed as a range between the lowest value and the highest value found in these experiments. Both the average MIC50 and MIC90 are indicated in bold.

[5] = tested on: MRSA 2141; assay: Local thigh muscle infection with MRSA 2141 in the mouse, CFU outgrowth; assay type: in vivo; settings: for Log reduction of MRSA 2141 CFU in thigh muscle: vs vehicle; for Reduction of bacterial outgrowth against the untreated group: P≦0.01
Experimental: (§3) The purpose of this study was to investigate the antibiotic efficacy of different doses of compound BAS00674552 against a local infection with MRSA 2141 in the mouse. Thirty mice were treated intravenously with 0.5, 5.0 or 50 mg/kg body weight, respectively. The observation period was three days. Outgrowth of the infection was used to establish drug efficacy.
The test substances were administered as a solution in dimethylsulfoxide (DMSO). The test substance was administered as 20 μl injections per mouse at all dose levels. Vancomycin was used as positive control and injected intravenously as a 10 mg/ml solution in DMSO (20 μl per mouse).
The study was performed according to Lab-Sop-Amp-Anim-002 and Lab-Sop-Amp-Bac-003. In short, mice were injected with 11E05 MRSA bacteria, strain 2141 in the right thigh muscle, followed one day later by an i.v. injection of the test compound, vancomycin or vehicle in the tail vein. 24 hours later mice were sacrificed, blood was collected by heart puncture and the right thigh muscle was removed. Plasma was prepared from blood samples and stored at −80°±10° C. for possible future analysis. Thigh muscles were weighted and homogenized using an Ultra-Turrax® and dilutions of the homogenate were prepared in saline. Limiting dilutions were plated onto agar plates and two days later the number of MRSA 2141 CFU were determined for each individual mouse as an indication of bactericidal activity of the compound. Additionally, tests were performed to determine if the bacteria used are still oxacillin resistant Staphylococcus aureus. This was done before injection and on pooled thigh muscle isolates per group. For this purpose Staphaurex® (Remel Europe Ltd., Crossways, UK) and ORSAB®+supplements (Oxoid Ltd., Basingstoke, UK) were used. In vivo antibiotic activity is determined by a CFU reduction of >90% (1 log reduction) in comparison to the negative control (vehicle only).
The study was comprised five groups of 10 females each.

[6] = tested on: S. aureus ATCC6538; assay: Further MIC tests, performed as in Example 1; assay type: cell-based; settings: Staphylococcus aureus
Experimental: as §1
Further MIC tests, performed as in Example 1, were performed on several of the above synthesized compounds.

[7] = Observation scoring for adverse side effects in infected treated mice; assay type: in vivo, mouse; settings: all animals
Experimental: as §3

[8] = duplo (duplicate determination), read-out: MIC-value S. aureus ATCC6538 duplo
[9] = first determination, read-out: MIC-value S. aureus ATCC6538

MIC [1]	MIC [2]	MIC [3]	MIC 50 [4]	MIC 90 [4]	Range MIC (lowest-highest): highest [4]	Range MIC (lowest-highest): lowest [4]	SMILES	MIC [6, 8]	MIC [6, 9]	further results
16 µg/mL (≈ 49.8 µM)	16 µg/mL (≈ 49.8 µM)	8 µg/mL (≈ 24.9 µM)	>32 microgram/milliliter	>32 microgram/milliliter	>32 microgram/milliliter	>32 microgram/milliliter	CCOC(=O)NCCOC(=O)Nc1ccc(Cl)c(Cl)c1 [BAS 00212008, (3,4-dichloro-phenyl)-carbamic acid 2-ethoxycarbonylamino-ethyl ester]	–	–	–
8 µg/mL (≈ 22 µM)	8 µg/mL (≈ 22 µM)	8 µg/mL (≈ 22 µM)	16 microgram/milliliter	32 microgram/milliliter	>32 microgram/milliliter	8 microgram/milliliter	CCC(COC(=O)Nc1ccc(Cl)c(Cl)c1)NC(=O)OC(C)C (centres unmarked) [BAS 00674544, (3,4-dichloro-phenyl)-carbamic acid 2-isopropoxycarbonylamino-butyl ester]	–	–	–
–	–	–	–	–	–	–	Cc1ccc(NC(=O)OC(C)CNC(=O)OCC(C)C)cc1 (centres unmarked) [TAC 1_005, p-tolyl-carbamic acid 2-isobutoxycarbonylamino-1-methyl-ethyl ester]	50 µg/mL (≈ 162 µM)	100 µg/mL (≈ 324 µM)	–
–	–	–	–	–	–	–	CC(C)COC(=O)NCC(C)OC(=O)Nc1ccc(C(F)(F)F)cc1 (centres unmarked) [TAC 1_007, (4-trifluoromethyl-phenyl)-carbamic acid 2-isobutoxycarbonylamino-1-methyl-ethyl ester]	25 µg/mL (≈ 69 µM)	12.5 µg/mL (≈ 34.5 µM)	–
–	–	–	–	–	–	–	NC(=O)OCCOC(=O)Nc1ccc(Cl)c(Cl)c1 [TAC 1_009, (3,4-dichloro-phenyl)-carbamic acid 2-carbamoyloxy-ethyl ester]	50 µg/mL (≈ 171 µM)	100 µg/mL (≈ 341 µM)	–
–	–	–	–	–	–	–	CNC(=O)OCCOC(=O)Nc1ccc(Cl)c(Cl)c1 [TAC 1_010, (3,4-dichloro-phenyl)-carbamic acid 2-methylcarbamoyloxy-ethyl ester]	50 µg/mL (≈ 163 µM)	100 µg/mL (≈ 326 µM)	–
–	–	–	–	–	–	–	CCNC(=O)OCCOC(=O)Nc1ccc(Cl)c(Cl)c1 [TAC 1_011, (3,4-dichloro-phenyl)-carbamic acid 2-ethylcarbamoyloxy-ethyl ester]	100 µg/mL (≈ 311 µM)	100 µg/mL (≈ 311 µM)	–
–	–	–	–	–	–	–	CN[C@H](CC(C)C)C(=O)N[C@H]1C(=O)N[C@@H](CC(N)=O)C(=O)N[C@H]2C(=O)N[C@H]3C(=O)N[C@H](C(=O)N[C@H](C(=O)O)c4cc(O)cc(O)c4-c4cc3ccc4O)[C@H](O)c3ccc(c(Cl)c3)Oc3cc2cc(c3O[C@@H]2O[C@H](CO)[C@@H](O)[C@H](O)[C@H]2O[C@H]2C[C@](C)(N)[C@H](O)[C@H](C)O2)Oc2ccc(cc2Cl)[C@H]1O [vancomycin, Vancomycin, reference compound]	–	–	Log reduction of MRSA 2141 CFU in thigh muscle ([5]; positive control, 10 mg/ml i.v., 20 μl per mouse (10 mg/kg)): Over 1 Log

SMILES	MIC [1]	MIC [2]	MIC [3]	MIC 50 [4]	MIC 90 [4]	Range MIC (lowest-highest): highest [4]	Range MIC (lowest-highest): lowest [4]	MIC [6, 8]	MIC [6, 9]	further results
CC(C)COC(=O)NCC(C)OC(=O)Nc1ccc(Cl)c(Cl)c1 (centres unmarked) [BAS 00674552, (3,4-dichloro-phenyl)-carbamic acid 2-isobutoxycarbonylamino-1-methyl-ethyl ester]	8 µg/mL (≈ 22 µM)	4 µg/mL (≈ 11 µM)	4 µg/mL (≈ 11 µM)	8 microgram/milliliter	16 microgram/milliliter	>32 microgram/milliliter	4 microgram/milliliter	6.25 µg/mL (≈ 17.2 µM)	25 µg/mL (≈ 68.8 µM)	Log reduction of MRSA 2141 CFU in thigh muscle ([5]; 5 mg/kg single i.v. dose, 24 h after dosing): Approximately 2 Log; Reduction of bacterial outgrowth against the untreated group ([5]; 5 mg/kg): significant reduction of bacterial outgrowth; Log reduction of MRSA 2141 CFU in thigh muscle ([5]; 50 mg/kg single i.v. dose, 24 h after dosing): Approximately 2 Log; Reduction of bacterial outgrowth against the untreated group ([5]; 50 mg/kg): significant reduction of bacterial outgrowth; Efficacy against local MRSA 2141 infection (statistical analysis) ([5]; all doses, P≦0.001): effective; Score on observation scoring sheets (DEC guidelines) [7]: < 8; Adverse side effects ([7]; single i.v. dose 0.5-50 mg/kg): no signs of adverse side effects were observed
